We go through 25 compounds from US10703756B2, “Pyrrolo[2,3-D]pyrimidinyl, pyrrolo[2,3-B]pyrazinyl, pyrrolo[2,3-B]pyridinyl acrylamides and epoxides thereof” (Pfizer Inc., priority 2015, dated 2020).

In test [1] the target is T1, JAK3 enzyme (Homo sapiens, UniProt P52333).
T1 sequence (P52333 1-1124): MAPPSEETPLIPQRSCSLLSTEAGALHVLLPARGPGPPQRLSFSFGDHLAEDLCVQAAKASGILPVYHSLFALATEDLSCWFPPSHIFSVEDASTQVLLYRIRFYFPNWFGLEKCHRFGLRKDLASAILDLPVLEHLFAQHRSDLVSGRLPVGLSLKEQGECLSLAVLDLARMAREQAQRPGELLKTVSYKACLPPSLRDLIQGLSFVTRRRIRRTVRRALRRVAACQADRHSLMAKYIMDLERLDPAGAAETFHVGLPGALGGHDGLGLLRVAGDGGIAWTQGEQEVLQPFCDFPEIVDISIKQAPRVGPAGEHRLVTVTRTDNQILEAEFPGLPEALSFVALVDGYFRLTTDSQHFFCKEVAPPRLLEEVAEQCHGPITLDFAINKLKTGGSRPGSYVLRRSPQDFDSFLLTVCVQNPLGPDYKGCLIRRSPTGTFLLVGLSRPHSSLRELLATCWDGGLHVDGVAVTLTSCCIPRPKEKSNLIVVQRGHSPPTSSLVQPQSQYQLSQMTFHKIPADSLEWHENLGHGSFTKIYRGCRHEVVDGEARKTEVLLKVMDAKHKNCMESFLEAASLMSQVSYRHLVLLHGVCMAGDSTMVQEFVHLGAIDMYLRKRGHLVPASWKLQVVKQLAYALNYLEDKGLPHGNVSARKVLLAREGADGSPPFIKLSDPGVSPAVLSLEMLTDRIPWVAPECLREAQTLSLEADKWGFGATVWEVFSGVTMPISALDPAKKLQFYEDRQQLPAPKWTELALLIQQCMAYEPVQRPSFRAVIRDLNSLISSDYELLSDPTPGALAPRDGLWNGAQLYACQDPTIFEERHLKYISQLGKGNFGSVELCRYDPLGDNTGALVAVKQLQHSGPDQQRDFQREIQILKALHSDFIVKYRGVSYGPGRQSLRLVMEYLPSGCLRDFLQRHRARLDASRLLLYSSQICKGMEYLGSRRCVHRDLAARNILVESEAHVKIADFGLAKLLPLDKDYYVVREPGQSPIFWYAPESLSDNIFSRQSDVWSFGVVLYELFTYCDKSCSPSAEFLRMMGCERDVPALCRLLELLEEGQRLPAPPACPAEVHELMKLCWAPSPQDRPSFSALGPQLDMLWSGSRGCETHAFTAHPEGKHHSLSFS
As to the kind of experiment: JAK Caliper Enzyme Assay at 1 mM ATP. It counts as biochemical. A digest of the protocol: (§1)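 Substrate conversion was kept within 20%-30% by adjusting enzyme and incubation for every preparation; peptide phosphorylation was quantified via on-chip mobility shift.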

In test [2] the target is T1, JAK3 enzyme. As to the kind of experiment: JAK Caliper Enzyme Assay at 4 μM ATP. The test is classed as biochemical. An outline of the steps:
as §1

`C=CC(=O)N1CCCC(Nc2cnc3[nH]cc(C(=O)NCC)c3n2)C1` (single isomer, unassigned) [Example 35]: the figures for the IC50 against JAK3 enzyme [1] and against JAK3 enzyme [2] were 621 nM and 6.77 nM, respectively.
With `C=CC(=O)N1C[C@H](C2CC2)[C@H](Nc2cnc3[nH]cc(C(=O)NCCOC)c3n2)C1` [Example 247, 2-{[(3S,4S)-1-acryloyl-4-cyclopropylpyrrolidin-3-yl]amino}-N-(2-methoxyethyl)-5H-pyrrolo[2,3-b]pyrazine-7-carboxamide], the concentration for half-maximal inhibition (IC50) (commonly the midpoint of a concentration-inhibition curve) at JAK3 enzyme [1] came to 829 nM; against JAK3 enzyme [2] it was 3.34 nM.
As for `C#CCNC(=O)c1c[nH]c2ncc(N3CCN(C(=O)C=C)C(C)(C)C3)nc12` [Example 83, 2-(4-acryloyl-3,3-dimethylpiperazin-1-yl)-N-(prop-2-yn-1-yl)-5H-pyrrolo[2,3-b]pyrazine-7-carboxamide], the values for the IC50 on JAK3 enzyme [1] and against JAK3 enzyme [2] were 1110 nM and 10.7 nM, respectively.
As to `C=CC(=O)N1CCC(Nc2cnc3[nH]cc(C(=O)NCc4nc5ccc(F)cc5o4)c3n2)CC1` [Example 194, 2-[(1-acryloylpiperidin-4-yl)amino]-N-[(6-fluoro-1,3-benzoxazol-2-yl)methyl]-5H-pyrrolo[2,3-b]pyrazine-7-carboxamide], the results for the IC50 at JAK3 enzyme [1] and on JAK3 enzyme [2] were 22 nM and 0.993 nM, respectively.
For `C=CC(=O)N1CCN(c2cnc3[nH]cc(C(=O)N[C@@H]4COC[C@@H]4c4ccc(F)cc4)c3n2)CC1(C)C` (stereo in doubt) [Example 143, 2-(4-acryloyl-3,3-dimethylpiperazin-1-yl)-N-[4-(4-fluorophenyl)tetrahydrofuran-3-yl]-5H-pyrrolo[2,3-b]pyrazine-7-carboxamide], the concentration for half-maximal inhibition (IC50) against JAK3 enzyme [1] was found to be 1920 nM; at JAK3 enzyme [2], 22.6 nM.
For `C=CC(=O)N1CC[C@H](Nc2cnc3[nH]cc(C(=O)NCCC(F)(F)F)c3n2)C1` (single isomer, unassigned) [Example 255], the half-inhibitory concentration (IC50) on JAK3 enzyme [1] is 846 nM; against JAK3 enzyme [2] it was 6.37 nM.
In the case of `C=CC(=O)N1CCN(c2cnc3[nH]cc(C(=O)N[C@H]4CCOC4)c3n2)CC1(C)C` [Example 150, 2-(4-acryloyl-3,3-dimethylpiperazin-1-yl)-N-[(3S)-tetrahydrofuran-3-yl] 5H-pyrrolo[2,3-b]pyrazine-7-carboxamide], the IC50 worked out at 1110 nM against JAK3 enzyme [1] and 8.09 nM at JAK3 enzyme [2].
On the same counts, the results for `C=CC(=O)N1C[C@@H](Nc2ncnc3[nH]ccc23)CC[C@H]1COC` (single isomer, unassigned) [Example 93] are more than 3160 nM and 711 nM.
`C=CC(=O)N1C[C@H](Nc2cnc3[nH]cc(C(=O)NCCOC)c3n2)[C@H](C2CC2)C1` [Example 259, 2-{[(3R,4R)-1-acryloyl-4-cyclopropylpyrrolidin-3-yl]amino}-N-(2-methoxyethyl)-5H-pyrrolo[2,3-b]pyrazine-7-carboxamide]: the results for the IC50 against JAK3 enzyme [1] and at JAK3 enzyme [2] were more than 10000 nM and 180 nM, respectively.
For the compound `C=CC(=O)N1CCC(Nc2cnc3[nH]cc(C(=O)NCCC(F)(F)F)c3n2)CC1C` (racemic) [Example 22, Cis-racemic 2-{[1-acryloyl-2-methylpiperidin-4-yl]amino}-N-(3,3,3-trifluoropropyl)-5H-pyrrolo[2,3-b]pyrazine-7-carboxamide], the concentration for half-maximal inhibition (IC50) at JAK3 enzyme [1] was 134 nM; on JAK3 enzyme [2] it was 1.29 nM.
Turning to `C=CC(=O)N1CCC(N(C)c2cnc3[nH]cc(C(=O)NCC)c3n2)C1` (racemic) [Example 28, Racemic-2-[(1-acryloylpyrrolidin-3-yl)(methyl)amino]-N-ethyl-5H-pyrrolo[2,3-b]pyrazine-7-carboxamide], the half-maximal inhibitory concentration (IC50) was determined as 1160 nM against JAK3 enzyme [1] and 13.7 nM against JAK3 enzyme [2].
`C=CC(=O)N1CCN(c2cnc3[nH]cc(C(=O)N[C@@H](CO)c4ccc(F)cc4)c3n2)CC1(C)C` [Example 146, 2-(4-acryloyl-3,3-dimethylpiperazin-1-yl)-N-[(1R)-1-(4-fluorophenyl)-2-hydroxyethyl]-5H-pyrrolo[2,3-b]pyrazine-7-carboxamide]: the results for the IC50 at JAK3 enzyme [1] and against JAK3 enzyme [2] were 1370 nM and 12.2 nM, respectively.
On to `C=CC(=O)N1C[C@H](C)[C@H](Nc2cnc3[nH]cc(C(=O)NCCOC)c3n2)C1` [Example 264, 2-{[(3S,4S)-1-acryloyl-4-methylpyrrolidin-3-yl]amino}-N-(2-methoxyethyl)-5H-pyrrolo[2,3-b]pyrazine-7-carboxamide], for which the figures for the half-maximal inhibitory concentration (IC50) against JAK3 enzyme [1] and on JAK3 enzyme [2] were 479 nM and 2.41 nM, respectively.
Regarding `C=CC(=O)N1CCC(Nc2cnc3[nH]cc(C(=O)NCC)c3c2)CC1` [Example 352, 5-((1-acryloylpiperidin-4-yl)amino)-N-ethyl-1H-pyrrolo[2,3-b]pyridine-3-carboxamide], the 50% inhibitory concentration (IC50) at JAK3 enzyme [1] was determined as 4500 nM; at JAK3 enzyme [2], 52.3 nM.
As for `C=CC(=O)N1CC[C@@H](Nc2cnc3[nH]cc(C(=O)N[C@@H](C)COC)c3n2)[C@@H](OC)C1` (single isomer, unassigned) [Example 355], the IC50 worked out at 30 nM at JAK3 enzyme [1] and 0.327 nM on JAK3 enzyme [2].
Turning to `C=CC(=O)N1CCN(c2cnc3[nH]cc(C(=O)N[C@@H](C)[C@H](O)c4ccccc4)c3n2)CC1(C)C` [Example 156, 2-(4-acryloyl-3,3-dimethylpiperazin-1-yl)-N-[(1R,2S)-1-hydroxy-1-phenylpropan-2-yl]-5H-pyrrolo[2,3-b]pyrazine-7-carboxamide], the IC50 turned out to be 4090 nM on JAK3 enzyme [1] and 28.9 nM against JAK3 enzyme [2].
In the case of `C=CC(=O)N1CCN(c2cnc3[nH]cc(C(=O)N[C@@H]4C[C@H]4C(F)(F)F)c3n2)C[C@@H]1CC(C)C` [Example 303, 2-[(3S)-4-acryloyl-3-(2-methylpropyl)piperazin-1-yl]-N-[(1R,2R)-2-(trifluoromethyl)cyclopropyl]-5H-pyrrolo[2,3-b]pyrazine-7-carboxamide], the IC50 was determined as 731 nM against JAK3 enzyme [1] and 4.81 nM against JAK3 enzyme [2].
Take `C=CC(=O)N1CC[C@H](Nc2cnc3[nH]cc(C(=O)NCC(F)(F)F)c3n2)C1` (single isomer, unassigned) [Example 254]: the IC50 against JAK3 enzyme [1] came out at 2540 nM; on JAK3 enzyme [2] it was 17.2 nM.
Taken in the same sequence, the figures for `C=CC(=O)N1CCN(c2cnc3[nH]cc(C(=O)N[C@H](CO)[C@@H](C)CC)c3n2)CC1(C)C` [Example 145, 2-(4-acryloyl-3,3-dimethylpiperazin-1-yl)-N-[(2S,3S)-1-hydroxy-3-methylpentan-2-yl]-5H-pyrrolo[2,3-b]pyrazine-7-carboxamide] were 1930 nM and 18.4 nM.
With `C=CC(=O)N1CCC(Oc2cnc3[nH]cc(-c4ncn(C)n4)c3n2)CC1` [Example 126, 1-(4-{[7-(1-Methyl-1H-1,2,4-triazol-3-yl)-5H-pyrrolo[2,3-b]pyrazin-2-yl]oxy}piperidin-1-yl)prop-2-en-1-one], the IC50 was 3530 nM on JAK3 enzyme [1] and 14.9 nM against JAK3 enzyme [2].
As for `C=CC(=O)N1CCC(Oc2cnc3[nH]cc(C(C)O)c3n2)CC1` (racemic) [Example 117], the IC50 is 1490 nM against JAK3 enzyme [1] and 11.9 nM on JAK3 enzyme [2].
As for `C=CC(=O)N1CCN(c2cnc3[nH]cc(C(=O)NC4CCOC4)c3n2)CC1(C)C` (racemic) [Example 164, Racemic-2-(4-acryloyl-3,3-dimethylpiperazin-1-yl)-N-(tetrahydrofuran-3-yl)-5H-pyrrolo[2,3-b]pyrazine-7-carboxamide], the IC50 worked out at 726 nM on JAK3 enzyme [1] and 4.34 nM on JAK3 enzyme [2].
Taken in the same sequence, the figures for `C=CC(=O)N1C[C@H](C2CC2)[C@H](Nc2cnc3[nH]cc(C(=O)NCC)c3n2)C1` [Example 238, 2-{[(3S,4S)-1-acryloyl-4-cyclopropylpyrrolidin-3-yl]amino}-N-ethyl-5H-pyrrolo[2,3-b]pyrazine-7-carboxamide] were 1360 nM and 9.48 nM.
Taken in the same sequence, the figures for `C=CC(=O)N1CCN(c2cnc3[nH]cc(C(=O)N[C@@H](C)COCc4ccccc4)c3n2)CC1(C)C` [Example 134, 2-(4-acryloyl-3,3-dimethylpiperazin-1-yl)-N-[(2S)-1-(benzyloxy)propan-2-yl]-5H-pyrrolo[2,3-b]pyrazine-7-carboxamide] were 2530 nM and 12.4 nM.
Turning to `C=CC(=O)N1CCN(c2cnc3[nH]cc(C(=O)N[C@@H]4COc5ccccc5C4)c3n2)CC1(C)C` [Example 168, 2-(4-acryloyl-3,3-dimethylpiperazin-1-yl)-N-[(3S)-3,4-dihydro-2H-chromen-3-yl]-5H-pyrrolo[2,3-b]pyrazine-7-carboxamide], the values for the half-maximal inhibitory concentration (IC50) on JAK3 enzyme [1] and at JAK3 enzyme [2] were 769 nM and 7.76 nM, respectively.
